In patent US20240336602A1 (Katholieke Universiteit Leuven, priority 2020, published 2024) one finds IC50 data, which are given here for 35 compounds.

Molecules are shown by their SMILES. pIC50: −log10 of the molar value.

The term pIC50 denotes −log10 of the IC50, conventionally taken in molar units. Low values mean a large IC50, high ones a small IC50.

T1 sequence (J9SQF3 1-1709 isoform J9SQF3-12): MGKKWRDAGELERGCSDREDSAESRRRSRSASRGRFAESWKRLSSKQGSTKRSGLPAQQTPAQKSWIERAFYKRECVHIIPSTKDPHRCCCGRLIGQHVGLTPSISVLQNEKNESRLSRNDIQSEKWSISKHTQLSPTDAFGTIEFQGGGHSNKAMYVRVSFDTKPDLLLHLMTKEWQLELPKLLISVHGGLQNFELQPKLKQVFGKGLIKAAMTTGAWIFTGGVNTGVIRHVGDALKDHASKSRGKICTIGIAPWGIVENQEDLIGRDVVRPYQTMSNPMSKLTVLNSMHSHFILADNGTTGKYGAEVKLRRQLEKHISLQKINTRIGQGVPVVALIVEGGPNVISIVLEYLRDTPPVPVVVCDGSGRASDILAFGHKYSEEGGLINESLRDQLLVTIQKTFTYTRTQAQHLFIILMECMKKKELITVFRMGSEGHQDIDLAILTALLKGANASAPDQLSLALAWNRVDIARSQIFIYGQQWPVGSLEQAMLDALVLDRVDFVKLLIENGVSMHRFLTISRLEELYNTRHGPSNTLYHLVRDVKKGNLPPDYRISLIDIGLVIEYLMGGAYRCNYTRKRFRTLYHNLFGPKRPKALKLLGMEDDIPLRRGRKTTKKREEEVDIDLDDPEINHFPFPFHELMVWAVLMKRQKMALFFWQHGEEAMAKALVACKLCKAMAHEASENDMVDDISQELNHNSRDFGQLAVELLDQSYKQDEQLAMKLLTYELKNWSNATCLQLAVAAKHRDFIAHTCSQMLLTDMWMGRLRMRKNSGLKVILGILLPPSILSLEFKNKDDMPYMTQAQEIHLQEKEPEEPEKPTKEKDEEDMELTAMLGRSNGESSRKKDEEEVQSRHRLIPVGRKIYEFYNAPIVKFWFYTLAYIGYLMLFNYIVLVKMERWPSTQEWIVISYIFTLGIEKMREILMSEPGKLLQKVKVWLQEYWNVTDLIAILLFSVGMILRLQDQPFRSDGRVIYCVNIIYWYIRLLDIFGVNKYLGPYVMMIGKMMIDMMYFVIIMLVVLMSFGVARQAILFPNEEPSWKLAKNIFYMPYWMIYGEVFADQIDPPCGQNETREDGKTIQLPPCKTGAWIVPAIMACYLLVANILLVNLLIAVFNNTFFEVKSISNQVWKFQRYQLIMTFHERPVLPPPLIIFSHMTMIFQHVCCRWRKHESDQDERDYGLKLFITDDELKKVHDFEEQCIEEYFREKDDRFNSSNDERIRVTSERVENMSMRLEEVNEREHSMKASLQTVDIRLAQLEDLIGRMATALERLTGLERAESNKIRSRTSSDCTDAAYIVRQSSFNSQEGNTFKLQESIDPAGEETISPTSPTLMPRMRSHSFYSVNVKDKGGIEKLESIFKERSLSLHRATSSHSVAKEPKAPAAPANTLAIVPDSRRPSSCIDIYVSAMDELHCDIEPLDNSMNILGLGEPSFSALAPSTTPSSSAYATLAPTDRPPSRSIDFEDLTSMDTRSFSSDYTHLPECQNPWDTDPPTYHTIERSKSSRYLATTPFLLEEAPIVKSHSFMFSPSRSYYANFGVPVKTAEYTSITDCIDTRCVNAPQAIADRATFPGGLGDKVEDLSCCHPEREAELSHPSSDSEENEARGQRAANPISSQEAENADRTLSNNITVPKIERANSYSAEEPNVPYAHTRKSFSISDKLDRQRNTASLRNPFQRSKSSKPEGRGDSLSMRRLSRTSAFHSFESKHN

This assay has as its target T1, mouse TRPM3a2 (mTRPM3) ion channel (Mus musculus, UniProt J9SQF3).
T1 construct: expressed in transfected cells; host or cells: flip-in HEK293
Briefly: TRPM3 ion channel driven Ca2+ uptake, Fluo-4 AM assay (PS-stimulated, overexpressing flip-in HEK293 cells). Format: cell-based. The settings on record: PS (50 μM) stimulated, cpd 001-199. The method, boiled down: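 Flip-in HEK293 cells overexpressing mTRPM3α2, loaded with Fluo-4 AM, were added to wells with compound plus 50 μM pregnenolone sulfate in Ca2+-containing Krebs buffer and read immediately (ex 485/em 535 nm). Percent inhibition was scaled between PS-plus-vehicle and positive-control-inhibitor signals.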
As to `Cc1oc2ccc(OCC3CCOCC3)cc2c1C(=O)O` [cpd 015, 2-methyl-5-((tetrahydro-2H-pyran-4-yl)methoxy)benzofuran-3-carboxylic acid], the pIC50 is 4.70 to 6.00.

`Cc1oc2ccc(OCc3ccc(C(F)(F)F)o3)cc2c1C(=O)O` [cpd 018, 2-methyl-5-((5-(trifluoromethyl)furan-2-yl)methoxy)benzofuran-3-carboxylic acid] showed a negative-log IC50 (pIC50) of 4.70 to 6.00.

The compound `Cc1oc2ccc(OCc3cnco3)cc2c1C(=O)N[C@H]1CCNC1` [cpd 020, (S)-2-methyl-5-(oxazol-5-ylmethoxy)-N-(pyrrolidin-3-yl)benzofuran-3-carboxamide] gave a negative-log IC50 (pIC50) of 4.70 to 6.00.

In turn, `Cc1oc2ccc(OCc3ccncc3)cc2c1C(=O)N[C@H]1CCNC1` [cpd 021, (S)-2-methyl-5-(pyridin-4-ylmethoxy)-N-(pyrrolidin-3-yl)benzofuran-3-carboxamide] showed a pIC50 of 4.70 to 6.00.

The compound `Cc1oc2ccc(OCc3ccn(C)n3)cc2c1C(=O)N[C@H]1CCNC1` [cpd 023, (S)-2-methyl-5-((1-methyl-1H-pyrazol-3-yl)methoxy)-N-(pyrrolidin-3-yl)benzofuran-3-carboxamide] showed a negative-log IC50 (pIC50) of 4.70 to 6.00.

Take `Cc1oc2ccc(OCc3cnccn3)cc2c1C(=O)NC1CCNC1=O` (centres unmarked) [cpd 031, 2-methyl-N-(2-oxopyrrolidin-3-yl)-5-(pyrazin-2-ylmethoxy)benzofuran-3-carboxamide]: the pIC50 was 4.70 to 6.00.

The compound `Cc1oc2ccc(OCc3cncnc3)cc2c1C(=O)NC1CCNC1=O` (centres unmarked) [cpd 032, 2-methyl-N-(2-oxopyrrolidin-3-yl)-5-(pyrimidin-5-ylmethoxy)benzofuran-3-carboxamide] had a pIC50 of 4.70 to 6.00.

With `Cc1ccncc1COc1ccc2oc(C)c(C(=O)NC3CCOC3)c2c1` (centres unmarked) [cpd 034, 2-methyl-5-((4-methylpyridin-3-yl)methoxy)-N-(tetrahydrofuran-3-yl)benzofuran-3-carboxamide], the negative logarithm of the IC50 (pIC50) was 4.70 to 6.00.

For the compound `Cc1ccncc1COc1ccc2oc(C)c(C(=O)NC3CCNC3=O)c2c1` (centres unmarked) [cpd 037, 2-methyl-5-((4-methylpyridin-3-yl)methoxy)-N-(2-oxopyrrolidin-3-yl)benzofuran-3-carboxamide], the pIC50 was 4.70 to 6.00.

Compound `Cc1oc2ccc(OCc3ccccn3)cc2c1C(=O)NC1CCN(C)CC1` [cpd 039, 2-methyl-N-(1-methylpiperidin-4-yl)-5-(pyridin-2-ylmethoxy)benzofuran-3-carboxamide] had a pIC50 of 4.70 to 6.00.

As to `Cc1ccc(COc2ccc3oc(C)c(C(=O)NC4CCNC4=O)c3c2)c(C)n1` (centres unmarked) [cpd 044, 5-((2,6-dimethylpyridin-3-yl)methoxy)-2-methyl-N-(2-oxopyrrolidin-3-yl)benzofuran-3-carboxamide], the pIC50 was 4.70 to 6.00.

As to `Cc1oc2ccc(OC(C)c3ccncc3)cc2c1C(=O)NC1CCN(C)CC1` (centres unmarked) [cpd 045, 2-methyl-N-(1-methylpiperidin-4-yl)-5-(1-(pyridin-4-yl)ethoxy)benzofuran-3-carboxamide], the pIC50 was 4.70 to 6.00.

On to `Cc1oc2ccc(OCc3nccs3)cc2c1C(=O)NC1CCNCC1(F)F` (centres unmarked) [cpd 050, N-(3,3-difluoropiperidin-4-yl)-2-methyl-5-(thiazol-2-ylmethoxy)benzofuran-3-carboxamide], for which the pIC50 was at least 6.00.

In turn, `Cc1ccncc1COc1ccc2oc(C)c(C(=O)NC3(CO)CCOCC3)c2c1` [cpd 052, N-(4-(hydroxymethyl)tetrahydro-2H-pyran-4-yl)-2-methyl-5-((4-methylpyridin-3-yl)methoxy)-benzofuran-3-carboxamide] gave a negative-log IC50 (pIC50) of 4.70 to 6.00.

`Cc1cccnc1COc1ccc2oc(C)c(C(=O)NC3CCNCC3(F)F)c2c1` (centres unmarked) [cpd 053, N-(3,3-difluoropiperidin-4-yl)-2-methyl-5-((3-methylpyridin-2-yl)methoxy)benzofuran-3-carboxamide]: the negative logarithm of the IC50 (pIC50) is 4.70 to 6.00.

On to `Cc1oc2ccc(OCc3nccc4ccccc34)cc2c1C(=O)NC1CCN(C)CC1` [cpd 059, 5-(isoquinolin-1-ylmethoxy)-2-methyl-N-(1-methylpiperidin-4-yl)benzofuran-3-carboxamide], for which the pIC50 is 4.70 to 6.00.

`Cc1oc2ccc(OCc3cccc4cnccc34)cc2c1C(=O)NC1CCN(C)CC1` [cpd 060, 5-(isoquinolin-5-ylmethoxy)-2-methyl-N-(1-methylpiperidin-4-yl)benzofuran-3-carboxamide] gave a pIC50 of 4.70 to 6.00.

Compound `COc1ncccc1COc1ccc2oc(C)c(C(=O)NC3CCNCC3(F)F)c2c1` (centres unmarked) [cpd 062, N-(3,3-difluoropiperidin-4-yl)-5-((2-methoxypyridin-3-yl)methoxy)-2-methylbenzofuran-3-carboxamide] had a pIC50 of at least 6.00.

`Cc1oc2ccc(OCc3cccc(C(F)(F)F)n3)cc2c1C(=O)NC1CCNC1=O` (centres unmarked) [cpd 065, 2-methyl-N-(2-oxopyrrolidin-3-yl)-5-((6-(trifluoromethyl)pyridin-2-yl)methoxy)benzofuran-3-carboxamide] had a negative logarithm of the IC50 (pIC50) of 4.70 to 6.00.

Regarding `Cc1oc2ccc(OCc3ccc(C(F)(F)F)nc3)cc2c1C(=O)NC1CCNC1=O` (centres unmarked) [cpd 066, 2-methyl-N-(2-oxopyrrolidin-3-yl)-5-((6-(trifluoromethyl)pyridin-3-yl)methoxy)benzofuran-3-carboxamide], the pIC50 is 4.70 to 6.00.

Compound `Cc1oc2ccc(OCc3ccc(C(F)(F)F)o3)cc2c1C(=O)NC1CCN(C)CC1` [cpd 069, 2-methyl-N-(1-methylpiperidin-4-yl)-5-((5-(trifluoromethyl)furan-2-yl)methoxy)benzofuran-3-carboxamide] had a negative logarithm of the IC50 (pIC50) of 4.70 to 6.00.

As for `Cc1cncc(COc2ccc3oc(C)c(C(=O)N[C@H]4CCN(C(=O)OC(C)(C)C)C4)c3c2)c1` [cpd 073, tert-butyl (S)-3-(2-methyl-5-((5-methylpyridin-3-yl)methoxy)benzofuran-3-carboxamido)pyrrolidine-1-carboxylate], the pIC50 is 4.70 to 6.00.

The compound `Cc1oc2ccc(OCc3cccnc3C(F)(F)F)cc2c1C(=O)NC1CCNCC1(F)F` (centres unmarked) [cpd 074, N-(3,3-difluoropiperidin-4-yl)-2-methyl-5-((2-(trifluoromethyl)pyridin-3-yl)methoxy)benzofuran-3-carboxamide] showed a pIC50 of at least 6.00.

`Cc1oc2ccc(OCc3ncccc3C(F)(F)F)cc2c1C(=O)NC1CCNCC1(F)F` (centres unmarked) [cpd 076, N-(3,3-difluoropiperidin-4-yl)-2-methyl-5-((3-(trifluoromethyl)pyridin-2-yl)methoxy)benzofuran-3-carboxamide]: the pIC50 was 4.70 to 6.00.

On to `Cc1oc2ccc(OCc3cccc(N(C)C)n3)cc2c1C(=O)NC1CCN(C(=O)OC(C)(C)C)CC1(F)F` (centres unmarked) [cpd 078, tert-butyl 4-(5-((6-(dimethylamino)pyridin-2-yl)methoxy)-2-methylbenzofuran-3-carboxamido)-3,3-difluoropiperidine-1-carboxylate], for which the negative-log IC50 (pIC50) is 4.70 to 6.00.

In the case of `CCOC(=O)c1c(C)oc2ccc(OCC3CCN(C(=O)OC(C)(C)C)C3)cc12` (centres unmarked) [cpd 079, tert-butyl 3-(((3-(ethoxycarbonyl)-2-methylbenzofuran-5-yl)oxy)methyl)pyrrolidine-1-carboxylate], the negative-log IC50 (pIC50) is 4.70 to 6.00.

As for `Cc1oc2ccc(OCc3nccs3)cc2c1C(=O)NC1CCN(C(=O)OC(C)(C)C)CC1(F)F` (centres unmarked) [cpd 087, tert-butyl 3,3-difluoro-4-(2-methyl-5-(thiazol-2-ylmethoxy)benzofuran-3-carboxamido)piperidine-1-carboxylate], the pIC50 was 4.70 to 6.00.

Take `Cc1cccnc1COc1ccc2oc(C)c(C(=O)NC3CCN(C(=O)OC(C)(C)C)CC3(F)F)c2c1` (centres unmarked) [cpd 088, tert-butyl 3,3-difluoro-4-(2-methyl-5-((3-methylpyridin-2-yl)methoxy)benzofuran-3-carbox-amido)piperidine-1-carboxylate]: the negative logarithm of the IC50 (pIC50) was 4.70 to 6.00.

With `COc1ncccc1COc1ccc2oc(C)c(C(=O)NC3CCN(C(=O)OC(C)(C)C)CC3(F)F)c2c1` (centres unmarked) [cpd 089, tert-butyl 3,3-difluoro-4-(5-((2-methoxypyridin-3-yl)methoxy)-2-methylbenzofuran-3-carbox-amido)piperidine-1-carboxylate], the negative logarithm of the IC50 (pIC50) was 4.70 to 6.00.

Turning to `Cc1ncsc1COc1ccc2oc(C)c(C(=O)NC3CCN(C(=O)OC(C)(C)C)CC3(F)F)c2c1` (centres unmarked) [cpd 090, tert-butyl 3,3-difluoro-4-(2-methyl-5-((4-methylthiazol-5-yl)methoxy)benzofuran-3-carbox-amido)piperidine-1-carboxylate], the pIC50 is 4.70 to 6.00.

The compound `COc1cccc(COc2ccc3oc(C)c(C(=O)NC4CCN(C(=O)OC(C)(C)C)CC4(F)F)c3c2)n1` (centres unmarked) [cpd 091, tert-butyl 3,3-difluoro-4-(5-((6-methoxypyridin-2-yl)methoxy)-2-methylbenzofuran-3-carbox-amido)piperidine-1-carboxylate] had a negative-log IC50 (pIC50) of 4.70 to 6.00.

The compound `Cc1oc2ccc(OCc3cccnc3Cl)cc2c1C(=O)NC1CCN(C(=O)OC(C)(C)C)CC1(F)F` (centres unmarked) [cpd 092, tert-butyl 4-(5-((2-chloropyridin-3-yl)methoxy)-2-methylbenzofuran-3-carboxamido)-3,3-difluoro-piperidine-1-carboxylate] showed a negative-log IC50 (pIC50) of 4.70 to 6.00.

`Cc1oc2ccc(OCc3cnccc3Cl)cc2c1C(=O)NC1CCN(C(=O)OC(C)(C)C)CC1(F)F` (centres unmarked) [cpd 093, tert-butyl 4-(5-((4-chloropyridin-3-yl)methoxy)-2-methylbenzofuran-3-carboxamido)-3,3-difluoro-piperidine-1-carboxylate] gave a pIC50 of 4.70 to 6.00.

Turning to `Cc1oc2ccc(OCc3ccc4nccn4c3)cc2c1C(=O)NC1CCN(C(=O)OC(C)(C)C)CC1(F)F` (centres unmarked) [cpd 094, tert-butyl 3,3-difluoro-4-(5-(imidazo[1,2-a]pyridin-6-ylmethoxy)-2-methylbenzofuran-3-carbox-amido)piperidine-1-carboxylate], the pIC50 is 4.70 to 6.00.

The compound `Cc1oc2ccc(OCc3cncc(C(F)(F)F)c3)cc2c1C(=O)NC1CCN(C(=O)OC(C)(C)C)CC1(F)F` (centres unmarked) [cpd 095, tert-butyl 3,3-difluoro-4-(2-methyl-5-((5-(trifluoromethyl)pyridin-3-yl)methoxy)benzofuran-3-carboxamido)piperidine-1-carboxylate] gave a negative logarithm of the IC50 (pIC50) of 4.70 to 6.00.
